31 compounds from US10155754B2, “Substituted 2-imino-1,3-thiazolidin-4-ones as N-arachidonoylethanolamine cellular uptake inhibitors” (UNIVERSITAT BERN, priority 2014, dated 2018) can be followed below.

The term IC50 denotes the concentration needed to halve the response being measured.

The subject of the first assay is AEA cellular uptake (U937 cells). The assay is described as follows: [3H]-AEA cellular uptake inhibition in U937 cells. In kind it is cell-based. The conditions noted are these: Homo sapiens, U-937, U937 cells, final 100 nM AEA with 0.5 nM [3H]-AEA, 15 min at 37° C.; read-out: AEA uptake IC50. In a few lines:
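U937 cells (0.5×10^6 per sample) pre-incubated with compound (100 pM–100 μM, triplicates) for 15 min at 37 °C, then given 100 nM AEA including 0.5 nM [3H]-AEA for 15 min. Filtration, washing and scintillation counting of cell-associated radioactivity; IC50 by four-parameter nonlinear regression.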
On to `Cc1ccc(/N=C2\S/C(=C\c3ccc4c(c3)OCCO4)C(=O)N2c2ccc(C)cc2)cc1` [24_A_A, (2Z,5Z)-2-(p-tolylimino)-5-((2,3-dihydrobenzo[b][1,4]dioxin-6-yl)methylene)-3-p-tolylthiazolidin-4-one], for which the IC50 is 286 nM.

As to `O=C1/C(=C/c2ccc3c(c2)OCCO3)S/C(=N\c2ccc(F)cc2)N1c1ccc(F)cc1` [24_B_B, (2Z,5Z)-2-(4-fluorophenylimino)-3-(4-fluorophenyl)-5-((2,3-dihydrobenzo[b][1,4]dioxin-6-yl)methylene)thiazolidin-4-one], the IC50 turned out to be 170 nM.

Regarding `Cc1ccc(/N=C2\S/C(=C\c3ccc4c(cnn4C)c3)C(=O)N2CC(C)C)cc1` [28_A_X, (2Z,5Z)-2-(p-tolylimino)-3-isobutyl-5-((1-methyl-1H-indazol-5-yl)methylene)thiazolidin-4-one], the IC50 was determined as 351 nM.

With `Cc1ccc(/N=C2\S/C(=C\c3ccc(CO)cc3)C(=O)N2CC(C)C)cc1` [22_A_X, (2Z,5Z)-5-(4-(hydroxymethyl)benzylidene)-2-(p-tolylimino)-3-isobutylthiazolidin-4-], the IC50 turned out to be 150 nM.

As for `COCc1cccc(/C=C2\S/C(=N\CCc3ccccc3)N(c3ccccc3)C2=O)c1` [15_U_N, (2Z,5Z)-5-(3-(methoxymethyl)benzylidene)-2-(phenethylimino)-3-phenylthiazolidin-4-one], the IC50 stood at 15600 nM.

As to `O=C1/C(=C/c2ccc3[nH]cnc3c2)S/C(=N\Cc2ccccc2)N1CCc1ccccc1` [04_C_O, (2Z,5Z)-5-((1H-benzo[d]imidazol-5-yl)methylene)-2-(benzylimino)-3-phenethylthiazolidin-4-one], the IC50 came out at 1120 nM.

`O=C1/C(=C/c2ccc(CO)cc2)S/C(=N\CCc2ccccc2)N1c1ccccc1` [22_U_N, (2Z,5Z)-5-(4-(hydroxymethyl)benzylidene)-2-(phenethylimino)-3-phenylthiazolidin-4-one]: the IC50 was found to be 812 nM.

Take `Cc1ccc(N2C(=O)/C(=C/c3ccc4[nH]cnc4c3)S/C2=N\c2ccc(F)cc2)cc1` [32_B_A, (2Z,5Z)-5-((1H-benzo[d]imidazol-5-yl)methylene)-2-(4-fluorophenylimino)-3-p-tolylthiazolidin-4-one]: the 50% inhibitory concentration (IC50) is 632 nM.

With `O=C1/C(=C/c2ccc3[nH]ccc3c2)S/C(=N\c2ccccc2)N1Cc1ccco1` [03_N_M, (2Z,5Z)-5-((1H-indol-5-yl)methylene)-3-((furan-2-yl)methyl)-2-(phenylimino)thiazolidin-4-one], the IC50 amounted to 879 nM.

Take `O=C1/C(=C/c2ccc3[nH]ccc3c2)S/C(=N\Cc2ccccc2)N1CCCc1ccccc1` [03_C_K, (2Z,5Z)-5-((1H-indol-5-yl)methylene)-2-(benzylimino)-3-(3-phenylpropyl)thiazolidin-4-one]: the 50% inhibitory concentration (IC50) came out at 564 nM.

Regarding `O=C1/C(=C/c2ccc(CO)cc2)S/C(=N\c2ccccc2)N1Cc1ccco1` [22_N_M, (2Z,5Z)-5-(4-(hydroxymethyl)benzylidene)-3-((furan-2-yl)methyl)-2-(phenylimino)thiazolidin-4-one], the IC50 was 1310 nM.

Consider `O=C1/C(=C/c2ccccc2)S/C(=N\Cc2ccccc2)N1CCc1ccccc1` [23_C_O, (2Z,5Z)-5-benzylidene-2-(benzylimino)-3-phenethylthiazolidin-4-one], for which the IC50 came out at 1190 nM.

In the case of `O=C1/C(=C/c2ccc3[nH]ccc3c2)S/C(=N\Cc2ccccc2)N1CCc1ccccc1` [03_C_O, (2Z,5Z)-5-((1H-indol-5-yl)methylene)-2-(benzylimino)-3-phenethylthiazolidin-4-one], the half-maximal inhibitory concentration (IC50) was determined as 727 nM.

For `O=C1/C(=C/c2ccc(CO)cc2)S/C(=N\Cc2ccccc2)N1Cc1ccccc1` [22_C_C, (2Z,5Z)-5-(4-(hydroxymethyl)benzylidene)-3-benzyl-2-(benzylimino)thiazolidin-4-one], the IC50 is 10400 nM.

Regarding `O=C1/C(=C/c2ccc3[nH]cnc3c2)S/C(=N\Cc2ccc(F)cc2)N1c1ccccc1` [04_P_N, (2Z,5Z)-5-((1H-benzo[d]imidazol-5-yl)methylene)-2-(4-fluorobenzylimino)-3-phenylthiazolidin-4-one], the IC50 was determined as 1020 nM.

Regarding `CCCCN1C(=O)/C(=C/c2ccc3[nH]cnc3c2)S/C1=N\Cc1ccccc1` [04_C_G, (2Z,5Z)-5-((1H-benzo[d]imidazol-5-yl)methylene)-2-(benzylimino)-3-butylthiazolidin-4-one], the IC50 is 1060 nM.

As for `Cc1ccc(/N=C2\S/C(=C\c3ccc4c(c3)OCCO4)C(=O)N2c2ccc(Cl)cc2)cc1` [24_A_L, (2Z,5Z)-2-(p-tolylimino)-3-(4-chlorophenyl)-5-((2,3-dihydrobenzo[b][1,4]dioxin-6-yl)methylene)thiazolidin-4-one], the IC50 turned out to be 616 nM.

Staying with this assay, now noted: Homo sapiens, U-937, U937 cells, final 100 nM AEA with 0.5 nM [3H]-AEA, 15 min at 37° C.; read-out: AEA uptake inhibition IC50.
Consider `O=C1/C(=C/c2ccc3nccnc3c2)S/C(=N\c2ccccc2)N1c1ccccc1`, for which the IC50 came out at 7100 nM.

Turning to `COc1ccc(/C=C2\S/C(=N\c3ccc(C)cc3)N(c3ccccc3)C2=O)cc1`, the IC50 turned out to be 5100 nM.

Turning to `COc1ccc(/N=C2\S/C(=C\c3ccccc3)C(=O)N2c2ccccc2)cc1`, the IC50 came to 2340 nM.

As for `O=C1/C(=C/c2ccc3[nH]cnc3c2)S/C(=N\c2ccccc2)N1c1ccccc1` [drawing 109], the IC50 is 194 nM.

Regarding `O=C1/C(=C/c2ccc3[nH]cnc3c2)S/C(=N\c2ccccc2)N1Cc1ccco1`, the IC50 stood at 1840 nM.

As for `COc1ccc(/C=C2\S/C(=N\c3ccccc3)N(c3ccccc3)C2=O)cc1`, the IC50 was 2120 nM.

Regarding `O=C1/C(=C/c2ccc3c(c2)OCCO3)S/C(=N\c2ccccc2)N1c1ccccc1` [drawing 119], the IC50 amounted to 817 nM.

In the case of `O=C1/C(=C/c2ccc(CO)cc2)S/C(=N\c2ccccc2)N1Cc1ccco1` [drawing 157], the IC50 was 1310 nM.

On to `COc1cncc(/C=C2\S/C(=N\c3ccccc3)N(c3ccccc3)C2=O)c1`, for which the IC50 came out at 6700 nM.

Still in this assay, the particulars now being: U937 cells, final 100 nM AEA with 0.5 nM [3H]-AEA, 15 min at 37° C.; read-out: AEA uptake IC50.
`Cc1ccc(N2C(=O)/C(=C/c3ccc4[nH]cnc4c3)S/C2=N\c2ccc(F)cc2)cc1` [04_B_A, (2Z,5Z)-5-((1H-benzo[d]imidazol-5-yl)methylene)-2-(4-fluorophenylimino)-3-p-tolylthiazolidin-4-one]: the IC50 stood at 527 nM.

The target in the next assay is T1, FAAH (Homo sapiens, UniProt O00519).
T1 construct: endogenous in cells; host or cells: U937 cell homogenate
T1 sequence (O00519 1-579): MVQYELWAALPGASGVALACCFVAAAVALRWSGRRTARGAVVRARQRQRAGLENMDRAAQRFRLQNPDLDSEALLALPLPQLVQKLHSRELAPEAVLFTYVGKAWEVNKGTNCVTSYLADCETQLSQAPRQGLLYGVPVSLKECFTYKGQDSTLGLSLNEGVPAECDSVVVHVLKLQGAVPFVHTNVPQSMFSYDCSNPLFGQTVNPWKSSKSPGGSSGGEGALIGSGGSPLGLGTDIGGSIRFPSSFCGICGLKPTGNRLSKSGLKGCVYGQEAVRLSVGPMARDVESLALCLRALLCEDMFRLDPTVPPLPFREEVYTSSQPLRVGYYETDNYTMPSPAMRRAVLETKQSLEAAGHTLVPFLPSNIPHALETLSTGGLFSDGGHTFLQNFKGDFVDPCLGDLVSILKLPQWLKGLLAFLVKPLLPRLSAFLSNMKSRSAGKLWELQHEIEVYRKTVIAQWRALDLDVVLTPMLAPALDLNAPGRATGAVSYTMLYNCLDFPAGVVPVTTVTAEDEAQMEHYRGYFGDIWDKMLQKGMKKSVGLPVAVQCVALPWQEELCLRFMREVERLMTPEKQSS
Nature of the assay: FAAH activity: hydrolysis of [3H]-AEA in U937 cell homogenates. The format is biochemical. The note with it: [3H]-AEA hydrolysis, final 100 nM AEA, read-out: FAAH inhibition IC50. The protocol: Hydrolysis of [^3H]-AEA by FAAH was determined as previously described in cell homogenates of U937 cells (0.18 mg protein) (Omeir et al., 1999, Biochem Biophys Res Commun, 264, 316-20; Mor et al., 2004, J Med Chem, 47, 4998-5008). Protein amounts of cell homogenates corresponded to 0.5×10^6 cells (U937), to assure best possible comparability of IC50 values as used for the AEA cellular uptake assays. URB597 was used as positive control. Protein quantification was performed using a BCA assay (Thermo Scientific). Enzyme activity was assessed by addition of vehicle or compounds in 10 μL DMSO to 490 μL homogenate in 10 mM Tris HCl, 1 mM EDTA, 0.1% (w/v) BSA fatty acid free, pH=8 and incubation for 15 min at 37° C. After, a mixture of AEA plus [ethanolamine-1-^3H]-AEA (0.5 nM) at final 100 nM was added to the homogenates and incubated for 15 min at 37° C. The reaction was stopped by addition of 1 mL ice-cold CHCl3:MeOH (1:1) followed by vigorous vortexing. Phase separation was achieved by centrifugation at 10'000×g at 4° C. for 10 min. Radioactivity of the separated aqueous phase (upper phase) containing [^3H-ethanolamine] or [^3H-glycerol] was measured by liquid scintillation counting on a Tri-Carb 2100 TR liquid scintillation analyzer after addition of 3.5 mL Ultima Gold scintillation cocktail (PerkinElmer Life Sciences). Results are expressed as hydrolysis of tritium substrate in percent of vehicle treated control. IC50 values were calculated by GraphPad®. Data are reported as means of n=3 independent experiments performed in triplicates.
For `Cc1ccc(/N=C2\S/C(=C\c3ccc4c(c3)OCCO4)C(=O)N2c2ccc(C)cc2)cc1` [24_A_A, (2Z,5Z)-2-(p-tolylimino)-5-((2,3-dihydrobenzo[b][1,4]dioxin-6-yl)methylene)-3-p-tolylthiazolidin-4-one], the IC50 is more than 100000 nM.

`O=C1/C(=C/c2ccc3c(c2)OCCO3)S/C(=N\c2ccc(F)cc2)N1c1ccc(F)cc1` [24_B_B, (2Z,5Z)-2-(4-fluorophenylimino)-3-(4-fluorophenyl)-5-((2,3-dihydrobenzo[b][1,4]dioxin-6-yl)methylene)thiazolidin-4-one]: the IC50 was more than 100000 nM.

Regarding `Cc1ccc(/N=C2\S/C(=C\c3ccc4c(cnn4C)c3)C(=O)N2CC(C)C)cc1` [28_A_X, (2Z,5Z)-2-(p-tolylimino)-3-isobutyl-5-((1-methyl-1H-indazol-5-yl)methylene)thiazolidin-4-one], the IC50 is more than 100000 nM.

`O=C1/C(=C/c2ccc3c(c2)OCCO3)S/C(=N\Cc2ccccc2)N1c1ccc(F)cc1` [24_C_B, (2Z,5Z)-2-(benzylimino)-3-(4-fluorophenyl)-5-((2,3-dihydrobenzo[b][1,4]dioxin-7-yl)methylene)thiazolidin-4-one]: the IC50 was more than 100000 nM.

On to `Cc1ccc(/N=C2\S/C(=C\c3ccc(CO)cc3)C(=O)N2CC(C)C)cc1` [22_A_X, (2Z,5Z)-5-(4-(hydroxymethyl)benzylidene)-2-(p-tolylimino)-3-isobutylthiazolidin-4-], for which the IC50 was more than 100000 nM.

For the compound `COc1ccc(N2C(=O)/C(=C/c3ccc4c(c3)OCCO4)S/C2=N\Cc2ccccc2)cc1` [24_C_F, (2Z,5Z)-2-(benzylimino)-5-((2,3-dihydrobenzo[b][1,4]dioxin-7-yl)methylene)-3-(4-methoxyphenyl)thiazolidin-4-one], the IC50 is more than 100000 nM.

In the case of `O=C1/C(=C/c2ccc3c(c2)OCCO3)S/C(=N\c2ccc(F)cc2)N1C1CCCCC1` [22_B_I], the IC50 was more than 100000 nM.

For `O=C1/C(=C/c2ccc3c(c2)OCCO3)S/C(=N\Cc2ccccc2)N1Cc1ccccc1` [24_C_C, (2Z,5Z)-3-benzyl-2-(benzylimino)-5-((2,3-dihydrobenzo[b][1,4]dioxin-7-yl)methylene)thiazolidin-4-one], the IC50 is more than 100000 nM.
